For 13 compounds, EC50 results are on record in patent US10864211B2, “Hydroxy isoxazole compounds useful as GPR120 agonists” (Merck Sharp & Dohme Corp., priority 2016, dated 2020).

Where a name gives a salt, the structure may show the parent alone.

The assay has as its target T1, rat GPR120 (Rattus norvegicus, UniProt Q2AC31).
T1 construct: expressed in transfected cells; host or cells: HEK293
T1 sequence (Q2AC31 1-361): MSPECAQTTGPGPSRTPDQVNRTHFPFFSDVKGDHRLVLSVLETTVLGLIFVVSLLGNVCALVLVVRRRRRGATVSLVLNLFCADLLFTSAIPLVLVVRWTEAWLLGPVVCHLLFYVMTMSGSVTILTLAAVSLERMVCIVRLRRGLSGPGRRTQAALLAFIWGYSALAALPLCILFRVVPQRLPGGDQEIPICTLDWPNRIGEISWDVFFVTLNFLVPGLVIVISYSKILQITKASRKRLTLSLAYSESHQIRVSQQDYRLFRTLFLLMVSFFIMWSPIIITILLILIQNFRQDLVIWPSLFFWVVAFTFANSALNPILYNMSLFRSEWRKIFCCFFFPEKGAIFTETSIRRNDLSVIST
In words: Rat GPR120 IP1 assay (inositol phosphate turnover). Format: cell-based. The note with it: IP1 accumulation in HEK293 cells stably expressing rat GPR120. The text has this: The binding of small molecule agonists to the G-protein-coupled receptor GPR120 activates phospholipase C, and leads to the generation of inositol 1,4,5-trisphosphate (InsP3 or IP3). IP3 is subsequently de-phosphorylated to IP1, which accumulates in cells and is stable in the presence of lithium chloride.
In the present method, agonist-induced activation of the human and rat GPR120 receptor was monitored by measuring the accumulation of IP1 in CHO-K1 cells that were stably expressing the short form of human GPR120 (Accession #NM_001195755) or HEK293 cells stably expressing rat GPR120 (Accession #NM_001047088). Following agonist addition, GPR120 activation and subsequent accumulation of IP1 was measured using a homogeneous Time Resolved Fluorescence-based ELISA commercially available from CisBio (IP-one ELISA Kit). The IP-One ELISA was a competitive immunoassay which uses IP1 labeled with […] and a terbium cryptate-labeled anti-IP1 monoclonal antibody. […] The signal loss was then back calculated to IP1 concentration using an IP1 standard curve. Determination of IP1 concentration was a direct measure of GPR120 activation and was used to determine compound potency (EC50).
Human GPR120 stable cell-lines were generated in CHO cells. The expression plasmids were transfected using lipofectamine (Life Technologies) following manufacturer's instructions. Stable cell-lines were generated following drug selection and single cell cloning. Rat GPR120 stable cell-lines were generated in HEK cells using the Jump-In™ cell engineering platform (Life Technologies) following manufacturer's instructions. Stable cell-lines were generated following drug selection and single cell cloning.
The assay was performed in 384-well format. CHO cells stably expressing human GPR120 were plated at 20,000 cells per well in growth medium (DMEM/F12, 10% fetal calf serum). HEK293 cells stably expressing rat GPR120 were plated at […] per well in growth medium (DMEM, 10% fetal calf serum). Cell plates were then incubated 16 hours at 37 degrees in a 5% CO2 incubator. Measurement of Inositol Phosphate Turnover (IP1) was performed using the CisBio IP-One kit (Part number 62IPAPEB). After the 16 hour incubation, the growth media was removed by centrifugation using the BlueWasher (AusWasher GUI Ver. v1.0.1.8) Protocol #21-“Light Dry” and 10 μl of stimulation buffer (prepared as described in the kit) was added to each well. In a separate plate, compounds were diluted in DMSO (200-fold over the final concentration in the assay well) and 50 nl was acoustically transferred to the appropriate well in the assay cell plate. The plates were then incubated for 60 minutes at 37 degrees in a 5% CO2 incubator. 10 μl of detection buffer (also prepared as described in the IP-One kit) was added to each well and the plates were incubated at room temperature for 60 minutes in the dark. The plates were then read in a Perkin ElmerEnVision or equivalent reader able to measure FRET. Fluorescent ratio of emission at 665 and 620 nm was then converted to the IP1 concentration by back calculating from an IP1 standard curve prepared at the time of the assay. The data was normalized to % activity using a reference compound, and the EC50 values were determined using a standard 4-parameter fit.
For `Oc1cc(-c2ccc(O[C@H]3C[C@](F)(c4ccnc(OC5CCC5)c4)C3)nc2)on1` [Example 87, sodium 5-[6-({cis-3-[2-(cyclobutyloxy)pyridin-4-yl]-3-fluorocyclobutyl}oxy)pyridin-3-yl]isoxazol-3-olate], a half-maximal response (EC50) required 4.7 nM.

For the compound `Oc1cc(-c2cnc(O[C@H]3C[C@@](F)(c4nc(C(F)(F)F)cs4)C3)cn2)on1` [Example 102, ammonium 5-[5-({trans-3-fluoro-3-[4-(trifluoromethyl)-1,3-thiazol-2-yl]cyclobutyl}oxy)pyrazin-2-yl]isoxazol-3-olate], it took 1160 nM to reach a half-maximal effect (EC50).

For the compound `Oc1cc(-c2ccc(O[C@H]3C[C@H](c4ccc(F)cc4)C3)cc2)on1` [Example 12, 5-(4-{[trans-3-(4-fluorophenyl)cyclobutyl]oxy}phenyl)isoxazol-3-ol], the EC50 (commonly the midpoint of the concentration-response curve) is 1.5 nM.

As for `Oc1cc(-c2ccc(O[C@H]3C[C@H](c4ccc(C(F)(F)F)cn4)C3)nc2)on1` [Example 23, 5-[6-({trans-3-[5-(trifluoromethyl)pyridin-2-yl]cyclobutyl}oxy)pyridin-3-yl]isoxazol-3-ol], the EC50 amounted to 100 nM.

`CCOc1cc([C@]2(F)C[C@@H](Oc3cnc(-c4cc(O)no4)cn3)C2)ccn1` [Example 94, 5-(5-{[cis-3-(2-ethoxypyridin-4-yl)-3-fluorocyclobutyl]oxy}pyrazin-2-yl)isoxazol-3-ol]: the EC50 amounted to 890 nM.

Turning to `Oc1cc(-c2cnc(O[C@H]3C[C@H](c4ccc(Cl)cc4)C3)nc2)on1` [Example 115, 5-(2-{[trans-3-(4-chlorophenyl)cyclobutyl]oxy}pyrimidin-5-yl)isoxazol-3-ol], the EC50 came to 5.8 nM.

As to `Oc1cc(-c2ccc(O[C@H]3C[C@H](c4ccc(Cl)cc4)C3)cn2)on1` [Example 110, 5-{[trans-3-(4-chlorophenyl)cyclobutyl]oxy}-2-(3-hydroxyisoxazol-5-yl)pyridinium trifluoroacetate], the EC50 came out at 1.1 nM.

With `Oc1cc(-c2ccc(O[C@H]3C[C@@H](c4ccc(Cl)cc4)C3)cn2)on1` [Example 111, 5-{[cis-3-(4-chlorophenyl)cyclobutyl]oxy}-2-(3-hydroxyisoxazol-5-yl)pyridinium trifluoroacetate], the EC50 was determined as 0.8 nM.

In turn, `Oc1cc(-c2cnc(O[C@H]3C[C@@](F)(c4ccnc(OC5CCC5)c4)C3)cn2)on1` [Example 95, 5-[5-({trans-3-[2-(cyclobutyloxy)pyridin-4-yl]-3-fluorocyclobutyl}oxy)pyrazin-2-yl]isoxazol-3-ol] gave an EC50 of 18 nM. This EC50 lies about 22-fold higher than the previous one.

Compound `Oc1cc(-c2cnc(O[C@H]3C[C@](F)(c4ccnc(OC5CC5)c4)C3)cn2)on1` [Example 91, ammonium 5-[5-({cis-3-[2-(cyclopropyloxy)pyridin-4-yl]-3-fluoro-cyclobutyl}oxy)pyrazin-2-yl]isoxazol-3-olate] had an EC50 of 36 nM.

Turning to `Oc1cc(-c2ccc(O[C@H]3C[C@@](F)(c4ccnc(OC5CCC5)c4)C3)nc2)on1` [Example 88, 2-(cyclobutyloxy)-4-(trans-1-fluoro-3-{[5-(3-hydroxyisoxazol-5-yl)pyridinium-2-yl]oxy}cyclobutyl)pyridinium bis(trifluoroacetate)], a half-maximal effect (EC50) was put at 42.2 nM.

In turn, `Oc1cc(-c2cnc(O[C@H]3C[C@H](Oc4cccc(OC(F)(F)F)c4)C3)cn2)on1` [Example 61, sodium 5-[5-({trans-3-[3-(trifluoromethoxy)phenoxy]-cyclobutyl}oxy)pyrazin-2-yl]isoxazol-3-olate] showed an EC50 of 1.8 nM.

Take `Oc1cc(-c2cnc(O[C@H]3C[C@](F)(c4ccnc(OC5CCC5)c4)C3)cn2)on1` [Example 96, sodium 5-[5-({cis-3-[2-(cyclobutyloxy)pyridin-4-yl]-3-fluorocyclobutyl}oxy)pyrazin-2-yl]isoxazol-3-olate]: the response was half-maximal at 33 nM (EC50).
